From patent US20160090556A1, “PRODUCTS COMPRISING MALODOR REDUCTION MATERIALS” (The Procter & Gamble Company, priority 2014, published 2016)

Assay: Liquid dish neat product liquid-air partition coefficient
Format: physicochemical
Conditions: for Log of liquid dish neat product liquid-air partition coefficient (Comment Code K/L): class code letter within Comment Code; for Comment Code: Log of liquid dish neat product liquid-air partition coefficient: code letters K, L

Structure (SMILES) | Log of liquid dish neat product liquid-air partition coefficient (Comment Code K/L) | Comment Code: Log of liquid dish neat product liquid-air partition coefficient
CCOC(=O)C1C2C=CC(C2)C1C(C)C (stereo not drawn) [Material 280] | K (Log of liquid dish neat product liquid-air partition coefficient greater than or equal to −7) | –
O=Cc1ccc2c(c1)OCO2 [Material 287] | – | K (Log of liquid dish neat product liquid-air partition coefficient greater than or equal to −7)
CC(C=O)Cc1ccc2c(c1)OCO2 (stereo not drawn) [Material 288] | K (Log of liquid dish neat product liquid-air partition coefficient greater than or equal to −7) | –
O=C1CCCCCCCCCC/C=C/CCO1 [Material 289] | K (Log of liquid dish neat product liquid-air partition coefficient greater than or equal to −7) | –
CC1CCC(C(C)(C)O)CC2=C1CCC2C (stereo not drawn) [Material 292] | K (Log of liquid dish neat product liquid-air partition coefficient greater than or equal to −7) | –
CCC(=O)CCC1C(C)=CCCC1(C)C (stereo not drawn) [Material 293] | K (Log of liquid dish neat product liquid-air partition coefficient greater than or equal to −7) | –
CCOC(=O)C1C(CC)=CCCC1(C)C (stereo not drawn) [Material 294] | K (Log of liquid dish neat product liquid-air partition coefficient greater than or equal to −7) | –
CC1=CCC(=C(C)C)CCC(C)=CCC1 [Material 295] | K (Log of liquid dish neat product liquid-air partition coefficient greater than or equal to −7) | –
C=C1C=CC(C(C)C)CCC(C)=CCC1 (stereo not drawn) [Material 296] | K (Log of liquid dish neat product liquid-air partition coefficient greater than or equal to −7) | –
CC(C)=CCC/C(C)=C/COC=O [Material 306] | – | K (Log of liquid dish neat product liquid-air partition coefficient greater than or equal to −7)
CC(C)=CCCC(C)=CCC1CCCC1=O (stereo not drawn) [Material 307] | K (Log of liquid dish neat product liquid-air partition coefficient greater than or equal to −7) | –
CCC(C)C(=O)N(C)c1ccccc1 (stereo not drawn) [Material 314] | – | K (Log of liquid dish neat product liquid-air partition coefficient greater than or equal to −7)
CC(=O)OC1(C)CCC(=C(C)C)CC1 (stereo not drawn) [Material 317] | K (Log of liquid dish neat product liquid-air partition coefficient greater than or equal to −7) | –
CC(C)=C1CCC(C)(O)CC1 (stereo not drawn) [Material 318] | K (Log of liquid dish neat product liquid-air partition coefficient greater than or equal to −7) | –
C=C1CCCC(C)(C)C1C=CC(C)=O (stereo not drawn) [Material 324] | K (Log of liquid dish neat product liquid-air partition coefficient greater than or equal to −7) | –
CCCCCCCCC1CCC(=O)O1 (stereo not drawn) [Material 330] | K (Log of liquid dish neat product liquid-air partition coefficient greater than or equal to −7) | –
C=C1CCCC(C)(C)C1C(=O)C=CC (stereo not drawn) [Material 331] | K (Log of liquid dish neat product liquid-air partition coefficient greater than or equal to −7) | –

Structure (SMILES) | Log of liquid dish neat product liquid-air partition coefficient (Comment Code K/L) | Comment Code: Log of liquid dish neat product liquid-air partition coefficient
C=CCCC(=O)C1CCCC(C)(C)C1 (stereo not drawn) [Material 334] | K (Log of liquid dish neat product liquid-air partition coefficient greater than or equal to −7) | –
CC1COCc2cc3c(cc21)C(C)(C)C(C)C3(C)C (stereo not drawn) [Material 335] | K (Log of liquid dish neat product liquid-air partition coefficient greater than or equal to −7) | K (Log of liquid dish neat product liquid-air partition coefficient greater than or equal to −7)
CCCCCCCC(=O)OCc1ccco1 [Material 336] | K (Log of liquid dish neat product liquid-air partition coefficient greater than or equal to −7) | –
CCCCCC(=O)OCc1ccco1 [Material 338] | K (Log of liquid dish neat product liquid-air partition coefficient greater than or equal to −7) | –
CCCCCCC(=O)OCc1ccco1 [Material 339] | K (Log of liquid dish neat product liquid-air partition coefficient greater than or equal to −7) | –
CCC(=O)OC1CC2C3C=CCC3C1C2(C)C (stereo not drawn) [Material 343] | K (Log of liquid dish neat product liquid-air partition coefficient greater than or equal to −7) | K (Log of liquid dish neat product liquid-air partition coefficient greater than or equal to −7)
CCOC(=O)C12CCCC1C1CCC2C1 (stereo not drawn) [Material 344] | K (Log of liquid dish neat product liquid-air partition coefficient greater than or equal to −7) | –
CCOC(=O)C1CCC(C(=O)OCC)CC1 (stereo not drawn) [Material 347] | K (Log of liquid dish neat product liquid-air partition coefficient greater than or equal to −7) | –
CC(C)CC1CC(C)(O)CCO1 (stereo not drawn) [Material 350] | K (Log of liquid dish neat product liquid-air partition coefficient greater than or equal to −7) | –
C=CCCCCCCCCC#N [Material 352] | K (Log of liquid dish neat product liquid-air partition coefficient greater than or equal to −7) | –
C/C=C1/CC2CC1C1CCC(=O)OC21 (stereo not drawn) [Material 353] | K (Log of liquid dish neat product liquid-air partition coefficient greater than or equal to −7) | K (Log of liquid dish neat product liquid-air partition coefficient greater than or equal to −7)
CCc1ccccc1CC(C)(C)C=O [Material 354] | – | K (Log of liquid dish neat product liquid-air partition coefficient greater than or equal to −7)
CCOC(=O)OC1CCCCC1C(C)(C)C (stereo not drawn) [Material 355] | – | K (Log of liquid dish neat product liquid-air partition coefficient greater than or equal to −7)
CCc1ccccc1CC(C)(C)C=O [Material 356] | K (Log of liquid dish neat product liquid-air partition coefficient greater than or equal to −7) | –
CC(O)C(C)/C=C1\C[C@H]2C[C@@H]1[C@@H]1C=CC[C@H]21 (stereo partly drawn) [Material 359] | K (Log of liquid dish neat product liquid-air partition coefficient greater than or equal to −7) | K (Log of liquid dish neat product liquid-air partition coefficient greater than or equal to −7)
CC(=O)OC1CC2C3C=CCC3C1C2(C)C (stereo not drawn) [Material 360] | K (Log of liquid dish neat product liquid-air partition coefficient greater than or equal to −7) | K (Log of liquid dish neat product liquid-air partition coefficient greater than or equal to −7)
CCc1ccc(CC(C)(C)C#N)cc1 [Material 361] | K (Log of liquid dish neat product liquid-air partition coefficient greater than or equal to −7) | –
